The source of these data is PMC5421785, “Citrullination only infrequently impacts peptide binding to HLA class II MHC” (PLoS ONE, 2017).

Like-named read-outs stand apart in the source and are kept apart here. Square brackets hold non-standard residues; d marks the D form. Ends that are not written are not given here. Peptide text beside a SMILES is read from it. Cit = NC(=O)NCCC[C@H](N)C(=O)O Where only a bound is given, the exact number is not on record here.

One test addresses T1, HLA-DRB1*01:01 (Homo sapiens, UniProt P01903+P01911, A100R/D57E/F55L/F60I/F76Y/I96L/L162R/M171V/P40L/Q125E/R42F/V115G/Y59C).
T1 construct: EBV transformed homozygous cell lines were used as sources of MHC molecules; endogenous in cells; host or cells: EBV transformed homozygous cell lines
In words: HLA class II peptide binding, inhibition of radiolabeled peptide binding to purified MHC.

The next test has as its target T2, HLA-DRB1*04:01 (Homo sapiens, UniProt P01903+P01911, A100K/A169T/F76Y/I96L/K127E/L162R/M171V/N62H/P40V/Q125Y/R42H/S133A/S149N/S66Y/V115G/V209L/W38E).
T2 construct: EBV transformed homozygous cell lines were used as sources of MHC molecules; endogenous in cells; host or cells: EBV transformed homozygous cell lines
The test is described as above.

The mark [1] stands for this setting: citrullinated 15-mer peptide (X = citrulline), purified HLA-DRB1*01:01, read-out: DRB1*01:01 binding capacity, Cit peptide (IC50 nM).
Setting [2] is: citrullinated 15-mer peptide (X = citrulline), purified HLA-DRB1*04:01, read-out: DRB1*04:01 binding capacity, Cit peptide (IC50 nM).
Setting [3] is: citrullinated 15-mer (X), purified MHC, inhibition of radiolabeled peptide binding, dash = IC50 >40,000 nM, read-out: DRB1*01:01 binding capacity, Cit peptide (IC50 nM).
Where [4] appears, read: citrullinated 15-mer (X), purified MHC, inhibition of radiolabeled peptide binding, dash = IC50 >40,000 nM, read-out: DRB1*04:01 binding capacity, Cit peptide (IC50 nM).
The mark [5] stands for this setting: wild-type (unmodified Arg) 15-mer peptide, purified HLA-DRB1*01:01, read-out: DRB1*01:01 binding capacity, WT peptide (IC50 nM).
The mark [6] stands for this setting: wild-type (unmodified Arg) 15-mer peptide, purified HLA-DRB1*04:01, read-out: DRB1*04:01 binding capacity, WT peptide (IC50 nM).
The mark [7] stands for this setting: read-out: DRB1*01:01 binding capacity, WT peptide (IC50 nM).
The mark [8] stands for this setting: read-out: DRB1*04:01 binding capacity, WT peptide (IC50 nM).

For orientation: IC50 means the midpoint of a concentration-inhibition curve. On to `CC[C@H](C)[C@H](NC(=O)[C@H](CCC(=O)O)NC(=O)[C@H](CC(=O)O)NC(=O)[C@@H](N)CCC(N)=O)C(=O)N[C@@H](CCC(N)=O)C(=O)N[C@@H](CC(N)=O)C(=O)N[C@@H](CCSC)C(=O)N[C@@H](CCCCN)C(=O)N[C@@H](CCC(=O)O)C(=O)N[C@@H](CCC(=O)O)C(=O)N[C@@H](CCSC)C(=O)N[C@@H](C)C(=O)N[C@@H](CCCNC(N)=O)C(=O)N[C@@H](Cc1c[nH]cn1)C(=O)N[C@@H](CC(C)C)C(=O)O` [QDEIQNMKEEMAXHL], for which the IC50 at HLA-DRB1*01:01 (setting [1]) was determined as 5890 nM; at HLA-DRB1*04:01 (setting [2]), 3940 nM.
Consider `CSCC[C@H](NC(=O)[C@H](CCCNC(=N)N)NC(=O)[C@H](CCCNC(N)=O)NC(=O)[C@@H](N)Cc1ccc(O)cc1)C(=O)N[C@@H](Cc1ccccc1)C(=O)NCC(=O)NCC(=O)N1CCC[C@H]1C(=O)NCC(=O)N[C@H](C(=O)N[C@@H](C)C(=O)N[C@@H](CO)C(=O)N[C@@H](CCCNC(=N)N)C(=O)N1CCC[C@H]1C(=O)N[C@@H](CO)C(=O)O)[C@@H](C)O` [YXRMFGGPGTASRPS] (H-Y[Cit]RMFGGPGTASRPS-OH), for which the 50% inhibitory concentration (IC50) at HLA-DRB1*01:01 (setting [3]) was determined as 252 nM; at HLA-DRB1*04:01 (setting [4]), 27400 nM.
ERGLKGHRGFTGLQG [Collagen 1126 WT]: the IC50 at HLA-DRB1*01:01 (setting [5]) is 29 nM; at HLA-DRB1*04:01 (setting [6]), over 40000 nM.
With `CSCC[C@H](NC(=O)[C@H](CCC(=O)O)NC(=O)[C@H](CCCNC(N)=O)NC(=O)[C@H](CCSC)NC(=O)[C@H](CCC(N)=O)NC(=O)[C@H](CCCNC(=N)N)NC(=O)[C@@H](N)CCC(=O)O)C(=O)N[C@@H](CCC(=O)O)C(=O)N[C@@H](CCC(=O)O)C(=O)N[C@@H](CC(N)=O)C(=O)N[C@@H](Cc1ccccc1)C(=O)N[C@@H](C)C(=O)N[C@H](C(=O)N[C@@H](CCC(=O)O)C(=O)N[C@@H](C)C(=O)O)C(C)C` [ERQMXEMEENFAVEA] (H-ERQM[Cit]EMEENFAVEA-OH), the half-maximal inhibitory concentration (IC50) on HLA-DRB1*01:01 (setting [1]) turned out to be 9530 nM; on HLA-DRB1*04:01 (setting [2]) it was 3220 nM.
On to `CC[C@H](C)[C@H](NC(=O)CNC(=O)[C@H](CCCNC(=N)N)NC(=O)[C@H](CCC(N)=O)NC(=O)CNC(=O)[C@H](C)NC(=O)[C@H](CC(C)C)NC(=O)CNC(=O)[C@H](CCC(N)=O)NC(=O)[C@@H]1CCCN1C(=O)CNC(=O)[C@@H]1CCCN1)C(=O)N[C@H](C(=O)NCC(=O)N[C@@H](CC(C)C)C(=O)O)C(C)C` [Collagen 971 WT], for which the IC50 at HLA-DRB1*01:01 (setting [5]) worked out at 7.9 nM; at HLA-DRB1*04:01 (setting [6]), 7160 nM.
In the case of `CC(C)C[C@H](NC(=O)[C@H](CC(C)C)NC(=O)[C@H](CCCNC(N)=O)NC(=O)[C@@H](NC(=O)CNC(=O)[C@@H]1CCCN1C(=O)[C@@H](NC(=O)[C@H](CO)NC(=O)[C@H](CO)NC(=O)[C@@H](N)CCCNC(=N)N)C(C)C)C(C)C)C(=O)N[C@@H](CCC(N)=O)C(=O)N[C@@H](CC(=O)O)C(=O)N[C@@H](CO)C(=O)N[C@H](C(=O)N[C@@H](CC(=O)O)C(=O)O)C(C)C` [RSSVPGVXLLQDSVD] (H-RSSVPGV[Cit]LLQDSVD-OH), the IC50 at HLA-DRB1*01:01 (setting [3]) came out at 1310 nM; on HLA-DRB1*04:01 (setting [4]), 8950 nM.
Take ARGAQGPPGATGFPG [Collagen 886 WT]: the IC50 is 32200 nM at HLA-DRB1*01:01 (setting [5]) and over 40000 nM on HLA-DRB1*04:01 (setting [6]).
For the compound `CC(C)C[C@H](NC(=O)[C@@H](N)CO)C(=O)N[C@@H](Cc1ccc(O)cc1)C(=O)N[C@@H](C)C(=O)N[C@@H](CO)C(=O)N[C@@H](CO)C(=O)N1CCC[C@H]1C(=O)NCC(=O)NCC(=O)N[C@H](C(=O)N[C@@H](Cc1ccc(O)cc1)C(=O)N[C@@H](C)C(=O)N[C@H](C(=O)N[C@@H](CCCNC(N)=O)C(=O)N[C@@H](CO)C(=O)O)[C@@H](C)O)C(C)C` [SLYASSPGGVYATXS], the figures for the IC50 at HLA-DRB1*01:01 (setting [3]) and on HLA-DRB1*04:01 (setting [4]) were 16 nM and 1280 nM, respectively.
For the compound `CC(C)C[C@H](NC(=O)CNC(=O)[C@H](CCCNC(N)=O)NC(=O)[C@@H](N)CCC(=O)O)C(=O)N[C@@H](CCCCN)C(=O)NCC(=O)N[C@@H](Cc1c[nH]cn1)C(=O)N[C@@H](CCCNC(=N)N)C(=O)NCC(=O)N[C@@H](Cc1ccccc1)C(=O)N[C@H](C(=O)NCC(=O)N[C@@H](CC(C)C)C(=O)N[C@@H](CCC(N)=O)C(=O)NCC(=O)O)[C@@H](C)O` [EXGLKGHRGFTGLQG] (H-E[Cit]GLKGHRGFTGLQG-OH), the IC50 at HLA-DRB1*01:01 (setting [1]) was 96 nM; on HLA-DRB1*04:01 (setting [2]), over 40000 nM.
As to FSLADAINTEFKNTR [Vimentin 86 WT], the IC50 on HLA-DRB1*01:01 (setting [7]) was 68 nM; at HLA-DRB1*04:01 (setting [8]), 12000 nM.
GEESRISLPLPNFSS [Vimentin 406 WT]: the half-inhibitory concentration (IC50) was 527 nM on HLA-DRB1*01:01 (setting [5]) and 7570 nM at HLA-DRB1*04:01 (setting [6]).
Consider VSSSSYRRMFGGPGT [Vimentin 6 WT], for which the figures for the IC50 on HLA-DRB1*01:01 (setting [7]) and at HLA-DRB1*04:01 (setting [8]) were 25 nM and 725 nM, respectively.
